Assay results: ChEMBL document CHEMBL4507276 (2021)

Tests used:
[1] = target: Alpha-2C adrenergic receptor (Homo sapiens) (UniProt P18825); settings: Compound concentration 10.0 uM
[2] = target: cAMP-dependent protein kinase catalytic subunit alpha (Homo sapiens) (UniProt P17612); experiment: PRKACA Invitrogen selectivity data (BI); settings: Compound concentration 3.0 uM
[3] = target: Tyrosine-protein kinase Lck (Homo sapiens) (UniProt P06239); experiment: LCK Invitrogen selectivity data (BI); settings: Compound concentration 3.0 uM
[4] = target: Dual specificity protein kinase CLK3 (Homo sapiens) (UniProt P49761); experiment: CLK3 Invitrogen selectivity data (BI); settings: Compound concentration 3.0 uM
[5] = target: C-C chemokine receptor type 2 (Homo sapiens) (UniProt P41597); experiment: CCR2/H AG Cerep selectivity data (BI); settings: filed as agonist, Compound concentration 20.0 uM
[6] = target: Androgen receptor (Homo sapiens) (UniProt P10275); experiment: ANDROGEN/H Cerep selectivity data (BI); settings: Compound concentration 20.0 uM
[7] = target: Corticotropin-releasing factor receptor 1 (Homo sapiens) (UniProt P34998); experiment: CRF1/H Cerep selectivity data (BI); settings: Compound concentration 20.0 uM
[8] = target: Cannabinoid receptor 1 (Homo sapiens) (UniProt P21554); experiment: CB1/CENTR/H Cerep selectivity data (BI); settings: Compound concentration 20.0 uM
[9] = target: Macrophage colony-stimulating factor 1 receptor (Homo sapiens) (UniProt P07333); experiment: CSF1R Invitrogen selectivity data (BI); settings: Compound concentration 3.0 uM
[10] = target: Somatostatin receptor type 1 (Homo sapiens) (UniProt P30872); experiment: SST1H_AGON Cerep selectivity data (BI); settings: filed as agonist, Compound concentration 20.0 uM
[11] = target: G protein-coupled receptor kinase 6 (Homo sapiens) (UniProt P43250); experiment: GRK6 Invitrogen selectivity data (BI); settings: Compound concentration 3.0 uM
[12] = target: Mitogen-activated protein kinase kinase kinase 9 (Homo sapiens) (UniProt P80192); experiment: MAP3K9 Invitrogen selectivity data (BI); settings: Compound concentration 3.0 uM
[13] = target: RAF proto-oncogene serine/threonine-protein kinase (Homo sapiens) (UniProt P04049); experiment: RAF1_Y_D Invitrogen selectivity data (BI); settings: Compound concentration 3.0 uM
[14] = target: Mitogen-activated protein kinase kinase kinase 10 (Homo sapiens) (UniProt Q02779); experiment: MAP3K10 Invitrogen selectivity data (BI); settings: Compound concentration 3.0 uM
[15] = target: Ribosomal protein S6 kinase alpha-3 (Homo sapiens) (UniProt P51812); experiment: RPS6KA3 Invitrogen selectivity data (BI); settings: Compound concentration 3.0 uM
[16] = target: T1, Serine/threonine-protein kinase Sgk3 (Homo sapiens) (UniProt Q96BR1); experiment: SGKL Invitrogen selectivity data (BI); settings: Compound concentration 3.0 uM
T1 sequence (whole entry): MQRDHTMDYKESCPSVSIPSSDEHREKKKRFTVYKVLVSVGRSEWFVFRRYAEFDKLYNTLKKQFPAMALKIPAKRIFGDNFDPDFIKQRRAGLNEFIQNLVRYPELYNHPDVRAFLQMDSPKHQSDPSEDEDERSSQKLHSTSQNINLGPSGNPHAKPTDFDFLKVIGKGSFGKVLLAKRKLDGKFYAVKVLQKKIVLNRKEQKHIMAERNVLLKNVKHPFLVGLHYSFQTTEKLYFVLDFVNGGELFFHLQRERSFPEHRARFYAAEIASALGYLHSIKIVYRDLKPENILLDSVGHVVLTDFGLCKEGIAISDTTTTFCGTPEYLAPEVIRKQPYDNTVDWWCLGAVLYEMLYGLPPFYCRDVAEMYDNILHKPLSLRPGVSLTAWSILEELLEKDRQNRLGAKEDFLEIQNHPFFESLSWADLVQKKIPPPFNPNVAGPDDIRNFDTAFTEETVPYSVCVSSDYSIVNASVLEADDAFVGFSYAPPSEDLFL

[17] = target: Alpha-2C adrenergic receptor (Homo sapiens) (UniProt P18825); experiment: ALPHA2CH_ANTAG Cerep selectivity data (BI); settings: filed as antagonist, Compound concentration 20.0 uM
[18] = target: Protein-tyrosine kinase 2-beta (Homo sapiens) (UniProt Q14289); experiment: PTK2B Invitrogen selectivity data (BI); settings: Compound concentration 3.0 uM
[19] = target: Protein-tyrosine kinase 6 (Homo sapiens) (UniProt Q13882); experiment: PTK6 Invitrogen selectivity data (BI); settings: Compound concentration 3.0 uM
[20] = target: 3',5'-cyclic-AMP phosphodiesterase 4D (Homo sapiens) (UniProt Q08499); experiment: PDE4D2 Cerep selectivity data (BI); settings: Compound concentration 20.0 uM
[21] = target: Glutamate receptor ionotropic, NMDA 2A (Rattus norvegicus) (UniProt Q00959); experiment: NMDA/R Cerep selectivity data (BI); settings: Compound concentration 20.0 uM
[22] = target: Sodium-dependent dopamine transporter (Homo sapiens, UniProt Q01959); experiment: DATRANS/HUM Cerep selectivity data (BI); settings: Compound concentration 20.0 uM
[23] = target: T2, Mitogen-activated protein kinase kinase kinase kinase 2 (Homo sapiens) (UniProt Q12851); experiment: MAP4K2 Invitrogen selectivity data (BI); settings: Compound concentration 3.0 uM
T2 sequence (whole entry): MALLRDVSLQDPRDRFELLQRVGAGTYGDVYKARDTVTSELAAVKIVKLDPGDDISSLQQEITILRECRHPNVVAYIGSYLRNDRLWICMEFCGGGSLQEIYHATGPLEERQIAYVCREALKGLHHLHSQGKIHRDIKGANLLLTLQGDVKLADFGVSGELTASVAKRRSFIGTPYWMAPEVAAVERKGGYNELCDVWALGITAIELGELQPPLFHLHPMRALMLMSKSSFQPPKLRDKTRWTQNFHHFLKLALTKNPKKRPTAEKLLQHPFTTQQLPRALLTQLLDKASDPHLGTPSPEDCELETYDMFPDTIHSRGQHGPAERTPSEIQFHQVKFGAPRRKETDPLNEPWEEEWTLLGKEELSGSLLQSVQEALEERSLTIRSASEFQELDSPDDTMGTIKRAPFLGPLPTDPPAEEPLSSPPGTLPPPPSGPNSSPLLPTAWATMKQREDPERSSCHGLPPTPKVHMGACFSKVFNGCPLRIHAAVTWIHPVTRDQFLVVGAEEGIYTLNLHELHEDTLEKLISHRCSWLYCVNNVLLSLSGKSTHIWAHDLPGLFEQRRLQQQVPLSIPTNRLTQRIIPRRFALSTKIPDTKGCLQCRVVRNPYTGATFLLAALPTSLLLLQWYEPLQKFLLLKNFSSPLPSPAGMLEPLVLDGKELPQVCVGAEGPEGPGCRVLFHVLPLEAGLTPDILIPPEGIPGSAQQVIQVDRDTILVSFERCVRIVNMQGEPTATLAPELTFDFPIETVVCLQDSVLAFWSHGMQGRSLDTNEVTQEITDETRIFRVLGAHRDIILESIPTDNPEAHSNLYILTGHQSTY

[24] = target: Bombesin receptor subtype-3 (Homo sapiens) (UniProt P32247); experiment: BB3H_AGON Cerep selectivity data (BI); settings: filed as agonist, Compound concentration 20.0 uM
[25] = target: Calcium/calmodulin-dependent protein kinase type II subunit beta (Homo sapiens) (UniProt Q13554); experiment: CAMK2B Invitrogen selectivity data (BI); settings: Compound concentration 3.0 uM
[26] = test system: Platelet-derived growth factor receptor alpha (Homo sapiens), P16234 [D842V]; experiment: PDGFRA D842V Invitrogen selectivity data (BI); settings: Compound concentration 3.0 uM
[27] = target: Calcium/calmodulin-dependent protein kinase type 1D (Homo sapiens) (UniProt Q8IU85); experiment: CAMK1D Invitrogen selectivity data (BI); settings: Compound concentration 3.0 uM
Sequence of Calcium/calmodulin-dependent protein kinase type 1D (Homo sapiens) (Q8IU85 whole entry, looked up): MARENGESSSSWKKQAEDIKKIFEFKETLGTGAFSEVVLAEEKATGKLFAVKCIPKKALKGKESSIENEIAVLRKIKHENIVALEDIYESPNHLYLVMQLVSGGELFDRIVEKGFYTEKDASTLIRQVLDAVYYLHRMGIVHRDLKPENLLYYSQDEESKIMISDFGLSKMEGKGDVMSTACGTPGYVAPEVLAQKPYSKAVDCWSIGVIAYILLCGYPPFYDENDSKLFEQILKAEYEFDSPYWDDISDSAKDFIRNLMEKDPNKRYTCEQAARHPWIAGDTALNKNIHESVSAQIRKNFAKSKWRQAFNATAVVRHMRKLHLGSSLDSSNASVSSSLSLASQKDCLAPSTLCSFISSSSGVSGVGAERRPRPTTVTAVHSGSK

Sequence of Alpha-2C adrenergic receptor (Homo sapiens) (P18825 whole entry): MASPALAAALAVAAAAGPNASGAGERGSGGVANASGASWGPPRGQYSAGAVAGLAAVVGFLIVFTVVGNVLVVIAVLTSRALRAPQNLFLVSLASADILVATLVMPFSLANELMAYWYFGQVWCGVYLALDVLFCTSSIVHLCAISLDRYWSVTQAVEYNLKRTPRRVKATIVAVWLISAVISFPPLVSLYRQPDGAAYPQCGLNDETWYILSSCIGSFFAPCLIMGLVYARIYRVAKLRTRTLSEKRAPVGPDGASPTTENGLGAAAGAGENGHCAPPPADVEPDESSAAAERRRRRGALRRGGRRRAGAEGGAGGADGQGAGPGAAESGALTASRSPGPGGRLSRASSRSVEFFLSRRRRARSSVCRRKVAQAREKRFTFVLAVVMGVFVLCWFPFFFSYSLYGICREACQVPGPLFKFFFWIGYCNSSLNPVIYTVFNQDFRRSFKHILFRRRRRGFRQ
Sequence of Protein-tyrosine kinase 6 (Homo sapiens) (Q13882 whole entry, looked up): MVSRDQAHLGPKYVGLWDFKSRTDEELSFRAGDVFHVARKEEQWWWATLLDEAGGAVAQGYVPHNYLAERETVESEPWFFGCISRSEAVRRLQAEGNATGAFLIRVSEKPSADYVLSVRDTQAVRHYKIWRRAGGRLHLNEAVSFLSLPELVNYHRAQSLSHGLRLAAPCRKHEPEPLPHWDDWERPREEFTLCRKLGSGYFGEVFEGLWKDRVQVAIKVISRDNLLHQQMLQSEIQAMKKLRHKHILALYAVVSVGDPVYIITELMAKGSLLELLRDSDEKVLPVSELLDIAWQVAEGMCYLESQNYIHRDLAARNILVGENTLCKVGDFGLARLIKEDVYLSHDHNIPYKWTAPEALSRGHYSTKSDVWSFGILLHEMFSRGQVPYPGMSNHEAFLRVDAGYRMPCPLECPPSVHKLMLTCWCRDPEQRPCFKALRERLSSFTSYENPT
Sequence of Mitogen-activated protein kinase kinase kinase 9 (Homo sapiens) (P80192 whole entry, looked up): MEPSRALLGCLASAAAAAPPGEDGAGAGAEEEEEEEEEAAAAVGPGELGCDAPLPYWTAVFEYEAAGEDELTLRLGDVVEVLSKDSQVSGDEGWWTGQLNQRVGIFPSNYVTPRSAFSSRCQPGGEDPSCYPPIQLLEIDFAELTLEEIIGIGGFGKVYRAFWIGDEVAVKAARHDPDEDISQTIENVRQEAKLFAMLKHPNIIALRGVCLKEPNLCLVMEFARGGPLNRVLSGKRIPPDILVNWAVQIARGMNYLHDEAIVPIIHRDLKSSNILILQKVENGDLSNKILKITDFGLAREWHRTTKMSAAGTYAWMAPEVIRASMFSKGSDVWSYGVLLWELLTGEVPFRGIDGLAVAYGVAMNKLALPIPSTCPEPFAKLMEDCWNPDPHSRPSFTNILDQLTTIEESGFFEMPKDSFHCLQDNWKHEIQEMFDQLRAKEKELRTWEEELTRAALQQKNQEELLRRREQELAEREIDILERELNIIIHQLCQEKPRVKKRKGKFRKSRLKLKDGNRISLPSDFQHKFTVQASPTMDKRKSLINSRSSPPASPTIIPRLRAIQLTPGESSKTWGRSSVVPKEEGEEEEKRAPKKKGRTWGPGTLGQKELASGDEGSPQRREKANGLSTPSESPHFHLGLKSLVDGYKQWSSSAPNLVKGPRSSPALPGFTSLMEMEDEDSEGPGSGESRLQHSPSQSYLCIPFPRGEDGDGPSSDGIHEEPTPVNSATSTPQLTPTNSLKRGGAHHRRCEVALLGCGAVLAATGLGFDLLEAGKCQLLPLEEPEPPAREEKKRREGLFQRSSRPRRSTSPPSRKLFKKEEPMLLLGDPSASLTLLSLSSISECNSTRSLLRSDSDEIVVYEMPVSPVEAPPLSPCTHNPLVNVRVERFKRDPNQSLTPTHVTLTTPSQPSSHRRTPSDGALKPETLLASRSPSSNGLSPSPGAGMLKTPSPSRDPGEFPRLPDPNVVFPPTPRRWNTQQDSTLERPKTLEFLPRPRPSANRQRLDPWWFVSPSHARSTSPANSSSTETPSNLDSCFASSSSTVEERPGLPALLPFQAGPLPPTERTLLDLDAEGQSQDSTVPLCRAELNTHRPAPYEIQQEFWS
Sequence of Protein-tyrosine kinase 2-beta (Homo sapiens) (Q14289 whole entry, looked up): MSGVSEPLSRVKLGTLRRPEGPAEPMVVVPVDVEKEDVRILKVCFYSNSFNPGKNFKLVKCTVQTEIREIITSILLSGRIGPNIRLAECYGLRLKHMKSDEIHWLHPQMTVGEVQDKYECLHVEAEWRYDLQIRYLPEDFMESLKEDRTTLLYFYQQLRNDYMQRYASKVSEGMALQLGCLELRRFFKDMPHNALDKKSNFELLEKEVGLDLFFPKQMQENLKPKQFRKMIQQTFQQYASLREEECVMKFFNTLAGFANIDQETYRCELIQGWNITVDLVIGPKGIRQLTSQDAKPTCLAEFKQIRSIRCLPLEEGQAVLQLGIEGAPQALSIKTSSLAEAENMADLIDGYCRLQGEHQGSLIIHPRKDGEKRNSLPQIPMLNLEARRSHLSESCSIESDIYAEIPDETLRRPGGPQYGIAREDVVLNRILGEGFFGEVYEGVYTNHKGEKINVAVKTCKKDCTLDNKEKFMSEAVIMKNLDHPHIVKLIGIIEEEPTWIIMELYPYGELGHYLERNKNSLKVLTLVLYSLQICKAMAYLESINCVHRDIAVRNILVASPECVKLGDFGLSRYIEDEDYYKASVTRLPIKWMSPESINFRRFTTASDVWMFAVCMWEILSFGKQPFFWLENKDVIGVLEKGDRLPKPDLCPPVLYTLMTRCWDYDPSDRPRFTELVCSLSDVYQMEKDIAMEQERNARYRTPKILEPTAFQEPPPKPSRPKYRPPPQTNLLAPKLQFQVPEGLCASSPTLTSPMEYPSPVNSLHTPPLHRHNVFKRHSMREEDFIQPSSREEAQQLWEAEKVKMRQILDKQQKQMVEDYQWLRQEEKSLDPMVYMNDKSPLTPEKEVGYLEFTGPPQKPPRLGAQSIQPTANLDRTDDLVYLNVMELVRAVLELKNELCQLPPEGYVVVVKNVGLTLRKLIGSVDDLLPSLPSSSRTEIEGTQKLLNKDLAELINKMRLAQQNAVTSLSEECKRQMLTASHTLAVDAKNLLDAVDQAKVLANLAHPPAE
Sequence of Androgen receptor (Homo sapiens) (P10275 whole entry): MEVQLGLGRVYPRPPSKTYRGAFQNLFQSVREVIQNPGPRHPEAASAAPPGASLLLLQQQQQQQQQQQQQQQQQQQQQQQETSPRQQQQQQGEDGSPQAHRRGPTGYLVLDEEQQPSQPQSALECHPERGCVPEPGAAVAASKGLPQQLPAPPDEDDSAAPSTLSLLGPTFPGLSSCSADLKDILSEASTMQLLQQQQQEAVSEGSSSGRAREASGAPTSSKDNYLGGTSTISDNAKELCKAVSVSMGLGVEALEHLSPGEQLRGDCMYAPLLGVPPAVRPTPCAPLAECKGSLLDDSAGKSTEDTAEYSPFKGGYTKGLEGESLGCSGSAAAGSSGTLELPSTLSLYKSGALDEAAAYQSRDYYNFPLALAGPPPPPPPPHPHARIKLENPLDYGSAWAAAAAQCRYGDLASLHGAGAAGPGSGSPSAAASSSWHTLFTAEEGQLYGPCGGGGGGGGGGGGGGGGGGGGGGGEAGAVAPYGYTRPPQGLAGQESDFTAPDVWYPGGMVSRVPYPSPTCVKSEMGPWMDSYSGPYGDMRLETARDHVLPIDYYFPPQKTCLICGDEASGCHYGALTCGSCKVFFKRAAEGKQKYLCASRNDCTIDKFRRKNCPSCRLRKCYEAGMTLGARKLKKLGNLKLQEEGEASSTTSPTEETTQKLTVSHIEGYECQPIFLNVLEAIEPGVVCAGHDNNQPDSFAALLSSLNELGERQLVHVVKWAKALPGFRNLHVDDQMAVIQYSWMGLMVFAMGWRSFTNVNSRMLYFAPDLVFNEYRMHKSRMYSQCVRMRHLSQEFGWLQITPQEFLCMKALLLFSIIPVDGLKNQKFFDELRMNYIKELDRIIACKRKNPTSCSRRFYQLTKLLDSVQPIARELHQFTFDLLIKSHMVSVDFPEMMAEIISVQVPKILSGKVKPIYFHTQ
Sequence of Cannabinoid receptor 1 (Homo sapiens) (P21554 whole entry): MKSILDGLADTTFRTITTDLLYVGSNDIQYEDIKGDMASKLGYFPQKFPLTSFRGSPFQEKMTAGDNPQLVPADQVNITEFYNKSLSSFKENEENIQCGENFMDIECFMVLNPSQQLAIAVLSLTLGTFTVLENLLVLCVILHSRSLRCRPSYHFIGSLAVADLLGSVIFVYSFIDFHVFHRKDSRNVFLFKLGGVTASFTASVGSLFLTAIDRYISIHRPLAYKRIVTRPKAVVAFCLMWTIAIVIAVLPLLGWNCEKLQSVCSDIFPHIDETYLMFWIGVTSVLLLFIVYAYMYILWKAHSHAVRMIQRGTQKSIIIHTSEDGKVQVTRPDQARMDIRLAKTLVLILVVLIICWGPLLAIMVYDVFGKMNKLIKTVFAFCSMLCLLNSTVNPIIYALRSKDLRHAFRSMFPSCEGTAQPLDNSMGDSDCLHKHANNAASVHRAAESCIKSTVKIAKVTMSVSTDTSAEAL

CN(C)C(=O)Cn1cc(-c2nc(C3(c4ccc(-c5cnc(N)nc5)cc4)CC3)no2)cn1 [BI 0153]
inactive: inhibition [1] 4.1%

CN(C)C(=O)Cn1cc(-c2nc([C@@](C)(c3ccc(-c4cnc(N)nc4)cc3)C3CC3)no2)cn1 [BI 665915]
inactive: residual activity [2] 104% | residual activity [3] 91.5% | residual activity [4] 95.5% | residual activity [5] 109% | residual activity [6] 102% | residual activity [7] 148% | residual activity [8] 88% | residual activity [9] 73% | residual activity [10] 96% | residual activity [11] 102% | residual activity [12] 91% | residual activity [13] 98% | residual activity [14] 88% | residual activity [15] 105% | residual activity [16] 101% | residual activity [17] 103% | residual activity [18] 86% | residual activity [19] 99.5% | residual activity [20] 82% | residual activity [21] 90% | residual activity [22] 87% | residual activity [23] 99.5% | residual activity [24] 108% | residual activity [25] 95% | residual activity [26] 95% | residual activity [27] 96%
